From ChEMBL document CHEMBL1201862, “PubChem BioAssay data set” (2004)
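Test compounds were applied to cells in 96-well plates for 48 hours at 5 doses. Here, GI50 denotes the concentration required for 50% inhibition of growth.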 Activity calls are given as the source filed them. Rule as the data show it: active = GI50 up to about 1.1 µM and inactive = higher.

How the values were obtained:
Experiment in all cases: growth of human tumour cells (NCI), 48 h
U-251 = tested on: U-251
A549 = tested on: A549
SK-MEL-5 = tested on: SK-MEL-5
OVCAR-3 = tested on: OVCAR-3
COLO 205 = tested on: COLO 205
ACHN = tested on: ACHN
HT-29 = tested on: HT-29
Hs-578T = tested on: Hs-578T
BT-549 = tested on: BT-549
OVCAR-8 = tested on: OVCAR-8
Malme-3M = tested on: Malme-3M
M14 = tested on: M14
NCI-H522 = tested on: NCI-H522
SK-OV-3 = tested on: SK-OV-3
EKVX = tested on: EKVX
KM12 = tested on: KM12
SF-295 = tested on: SF-295
HOP-62 = tested on: HOP-62
SK-MEL-28 = tested on: SK-MEL-28
SF-268 = tested on: SF-268
UO-31 = tested on: UO-31
HCT-116 = tested on: HCT-116
SF-539 = tested on: SF-539
DU-145 = tested on: DU-145
NCI-H23 = tested on: NCI-H23
A498 = tested on: A498
SNB-75 = tested on: SNB-75
OVCAR-5 = tested on: OVCAR-5
786-0 = tested on: 786-0
SNB-19 = tested on: SNB-19
NCI/ADR-RES = tested on: NCI/ADR-RES
UACC-62 = tested on: UACC-62
HCC 2998 = tested on: HCC 2998
K562 = tested on: K562
MDA-MB-231 = tested on: MDA-MB-231
PC-3 = tested on: PC-3
TK-10 = tested on: TK-10
SK-MEL-2 = tested on: SK-MEL-2
MCF7 = tested on: MCF7
SR = tested on: SR
IGROV-1 = tested on: IGROV-1
HL-60 = tested on: HL-60
SN12C = tested on: SN12C
MOLT-4 = tested on: MOLT-4
HCT-15 = tested on: HCT-15
NCI-H226 = tested on: NCI-H226
NCI-H460 = tested on: NCI-H460
T47D = tested on: T47D
UACC-257 = tested on: UACC-257
OVCAR-4 = tested on: OVCAR-4
SW-620 = tested on: SW-620
CAKI-1 = tested on: CAKI-1
MDA-N = tested on: MDA-N
CCRF-CEM = tested on: CCRF-CEM
HOP-92 = tested on: HOP-92
LOX IMVI = tested on: LOX IMVI
RPMI-8226 = tested on: RPMI-8226
MDA-MB-435 = tested on: MDA-MB-435
RXF 393 = tested on: RXF 393

`Cc1cccc(C(C)O)n1` (configuration not stated) was tested, and the GI50 (U-251) was > 100 µM (inactive), the GI50 (A549) was > 100 µM (inactive) and the GI50 (SK-MEL-5) was > 100 µM (inactive). For the same molecule, the GI50 (OVCAR-3) was > 100 µM (inactive), the GI50 (COLO 205) was > 100 µM (inactive) and the GI50 (ACHN) was > 100 µM (inactive). The GI50 (HT-29) was > 100 µM (inactive), the GI50 (Hs-578T) was > 100 µM (inactive) and the GI50 (BT-549) was > 100 µM (inactive). For the same molecule, the GI50 (OVCAR-8) was > 100 µM (inactive), the GI50 (Malme-3M) was 24 µM (inactive) and the GI50 (M14) was > 100 µM (inactive). The GI50 (NCI-H522) was > 100 µM (inactive), the GI50 (SK-OV-3) was > 100 µM (inactive) and the GI50 (EKVX) was > 100 µM (inactive). The GI50 (KM12) was > 100 µM (inactive), the GI50 (SF-295) was > 100 µM (inactive) and the GI50 (HOP-62) was > 100 µM (inactive). The GI50 (SK-MEL-28) was > 100 µM (inactive), the GI50 (SF-268) was > 100 µM (inactive) and the GI50 (UO-31) was > 100 µM (inactive). The GI50 (HCT-116) was > 100 µM (inactive), the GI50 (SF-539) was > 100 µM (inactive) and the GI50 (DU-145) was > 100 µM (inactive). The GI50 (NCI-H23) was > 100 µM (inactive), the GI50 (A498) was > 100 µM (inactive) and the GI50 (SNB-75) was > 100 µM (inactive). For the same molecule, the GI50 (OVCAR-5) was > 100 µM (inactive), the GI50 (786-0) was > 100 µM (inactive) and the GI50 (SNB-19) was > 100 µM (inactive). The GI50 (NCI/ADR-RES) was > 100 µM (inactive), the GI50 (UACC-62) was > 100 µM (inactive) and the GI50 (HCC 2998) was > 100 µM (inactive). The GI50 (K562) was > 100 µM (inactive), the GI50 (MDA-MB-231) was > 100 µM (inactive) and the GI50 (PC-3) was > 100 µM (inactive). For the same molecule, the GI50 (TK-10) was > 100 µM (inactive), the GI50 (SK-MEL-2) was > 100 µM (inactive) and the GI50 (MCF7) was > 100 µM (inactive). The GI50 (SR) was > 100 µM (inactive), the GI50 (IGROV-1) was > 100 µM (inactive) and the GI50 (HL-60) was > 100 µM (inactive). The GI50 (SN12C) was > 100 µM (inactive), the GI50 (MOLT-4) was > 100 µM (inactive) and the GI50 (HCT-15) was > 100 µM. For the same molecule, the GI50 (NCI-H226) was > 100 µM (inactive), the GI50 (NCI-H460) was > 100 µM (inactive) and the GI50 (T47D) was > 100 µM (inactive). The GI50 (UACC-257) was > 100 µM (inactive), the GI50 (OVCAR-4) was > 100 µM (inactive) and the GI50 (SW-620) was > 100 µM (inactive). The GI50 (CAKI-1) was > 100 µM (inactive), the GI50 (MDA-N) was > 100 µM (inactive) and the GI50 (CCRF-CEM) was > 100 µM (inactive).

With `CC(=O)OC1C2CCC3C(C)(O)C4CC(O)C(C)(C)C4(O)C(O)CC13CC2(C)O` (configuration not stated) the GI50 (A549) was > 100 µM (inactive), the GI50 (SK-MEL-5) was > 100 µM (inactive) and the GI50 (OVCAR-3) was > 100 µM (inactive). For the same molecule, the GI50 (COLO 205) was > 100 µM (inactive), the GI50 (ACHN) was > 100 µM (inactive) and the GI50 (HT-29) was > 100 µM (inactive). The GI50 (Hs-578T) was > 100 µM (inactive), the GI50 (HOP-92) was > 100 µM (inactive) and the GI50 (BT-549) was > 100 µM (inactive). The GI50 (OVCAR-8) was > 100 µM (inactive), the GI50 (M14) was > 100 µM (inactive) and the GI50 (NCI-H522) was > 100 µM (inactive). For the same molecule, the GI50 (SK-OV-3) was > 100 µM (inactive), the GI50 (EKVX) was > 100 µM (inactive) and the GI50 (KM12) was > 100 µM (inactive). The GI50 (SF-295) was > 100 µM (inactive), the GI50 (HOP-62) was > 100 µM (inactive) and the GI50 (SF-268) was > 100 µM (inactive). For the same molecule, the GI50 (UO-31) was > 100 µM (inactive), the GI50 (HCT-116) was > 100 µM (inactive) and the GI50 (SF-539) was > 100 µM (inactive). For the same molecule, the GI50 (DU-145) was > 100 µM (inactive), the GI50 (NCI-H23) was > 100 µM (inactive) and the GI50 (A498) was > 100 µM (inactive). The GI50 (SNB-75) was > 100 µM (inactive), the GI50 (OVCAR-5) was > 100 µM (inactive) and the GI50 (786-0) was > 100 µM (inactive). The GI50 (SNB-19) was > 100 µM (inactive), the GI50 (NCI/ADR-RES) was > 100 µM (inactive) and the GI50 (LOX IMVI) was > 100 µM (inactive). The GI50 (UACC-62) was > 100 µM (inactive), the GI50 (HCC 2998) was > 100 µM (inactive) and the GI50 (K562) was > 100 µM (inactive). The GI50 (RPMI-8226) was > 100 µM (inactive), the GI50 (MDA-MB-231) was > 100 µM (inactive) and the GI50 (PC-3) was > 100 µM (inactive). The GI50 (TK-10) was > 100 µM (inactive), the GI50 (SK-MEL-2) was > 100 µM (inactive) and the GI50 (MCF7) was > 100 µM (inactive). The GI50 (SR) was > 100 µM (inactive), the GI50 (IGROV-1) was > 100 µM (inactive) and the GI50 (HL-60) was > 100 µM (inactive). The GI50 (SN12C) was > 100 µM (inactive), the GI50 (HCT-15) was > 100 µM and the GI50 (NCI-H226) was > 100 µM (inactive). The GI50 (NCI-H460) was > 10 µM (inactive), the GI50 (T47D) was > 100 µM (inactive) and the GI50 (UACC-257) was > 100 µM (inactive). For the same molecule, the GI50 (OVCAR-4) was > 100 µM (inactive), the GI50 (CAKI-1) was > 100 µM (inactive) and the GI50 (MDA-N) was > 100 µM (inactive). For the same molecule, the GI50 (CCRF-CEM) was > 100 µM (inactive).

`C#C[C@@H](OC(=O)c1ccc([N+](=O)[O-])cc1)[C@@H]1C[C@H]2O[C@@H]([C@H](C/C=C/CC)OC(=O)c3ccc([N+](=O)[O-])cc3)C[C@H]2O1` was tested, and the GI50 (U-251) was > 100 µM (inactive), the GI50 (A549) was > 100 µM (inactive) and the GI50 (SK-MEL-5) was > 100 µM (inactive). The GI50 (OVCAR-3) was > 100 µM (inactive), the GI50 (COLO 205) was > 100 µM (inactive) and the GI50 (ACHN) was > 100 µM (inactive). The GI50 (HT-29) was > 100 µM (inactive), the GI50 (MDA-MB-435) was > 100 µM (inactive) and the GI50 (Hs-578T) was > 100 µM (inactive). The GI50 (HOP-92) was > 100 µM (inactive), the GI50 (BT-549) was > 100 µM (inactive) and the GI50 (OVCAR-8) was > 100 µM (inactive). The GI50 (Malme-3M) was > 100 µM (inactive), the GI50 (M14) was > 100 µM (inactive) and the GI50 (NCI-H522) was 32.6 µM (inactive). For the same molecule, the GI50 (SK-OV-3) was > 100 µM (inactive), the GI50 (EKVX) was > 100 µM (inactive) and the GI50 (KM12) was > 100 µM (inactive). The GI50 (SF-295) was > 100 µM (inactive), the GI50 (HOP-62) was > 100 µM (inactive) and the GI50 (SK-MEL-28) was > 100 µM (inactive). For the same molecule, the GI50 (SF-268) was > 100 µM (inactive), the GI50 (UO-31) was > 100 µM (inactive) and the GI50 (HCT-116) was > 100 µM (inactive). The GI50 (SF-539) was > 100 µM (inactive), the GI50 (DU-145) was > 100 µM (inactive) and the GI50 (NCI-H23) was > 100 µM (inactive). The GI50 (A498) was > 100 µM (inactive), the GI50 (SNB-75) was > 100 µM (inactive) and the GI50 (OVCAR-5) was > 100 µM (inactive). The GI50 (786-0) was > 100 µM (inactive), the GI50 (SNB-19) was > 100 µM (inactive) and the GI50 (NCI/ADR-RES) was > 100 µM (inactive). For the same molecule, the GI50 (LOX IMVI) was > 100 µM (inactive), the GI50 (UACC-62) was > 100 µM (inactive) and the GI50 (HCC 2998) was > 100 µM (inactive). The GI50 (K562) was > 100 µM (inactive), the GI50 (RPMI-8226) was > 100 µM (inactive) and the GI50 (MDA-MB-231) was > 100 µM (inactive). The GI50 (PC-3) was > 100 µM (inactive), the GI50 (RXF 393) was > 100 µM (inactive) and the GI50 (TK-10) was > 100 µM (inactive). For the same molecule, the GI50 (SK-MEL-2) was > 100 µM (inactive), the GI50 (IGROV-1) was 83.4 µM (inactive) and the GI50 (SN12C) was > 100 µM (inactive). The GI50 (MOLT-4) was > 100 µM (inactive), the GI50 (HCT-15) was > 100 µM and the GI50 (NCI-H226) was > 100 µM (inactive). The GI50 (NCI-H460) was > 100 µM (inactive), the GI50 (T47D) was > 100 µM (inactive) and the GI50 (UACC-257) was > 100 µM (inactive). For the same molecule, the GI50 (OVCAR-4) was > 100 µM (inactive), the GI50 (SW-620) was > 100 µM (inactive) and the GI50 (CAKI-1) was > 100 µM (inactive). The GI50 (MDA-N) was > 100 µM (inactive) and the GI50 (CCRF-CEM) was > 100 µM (inactive).
